Earlier results as cited in article PMC2751796 (Pharmacology & therapeutics, 2009).
Where two headings read alike, the source gives them in different places.

Tests used:
[1] = cited from earlier work
[2] = system: P-gp; conditions: ref Hugnet et al., 1996; Mealey et al., 2001, 2003, 2008; Sartor et al., 2004; cited from earlier work
[3] = cited from earlier work; remark: listed apart in the source
[4] = system: P-gp; conditions: four adult rhesus monkeys; ref Warren et al., 2000; cited from earlier work
[5] = system: P-gp; conditions: cited from earlier work; for Fold change in brain uptake ratio in inhibitor-treated vs. control mice / Fold change in brain uptake ratio in inhibitor-treated vs. control mice (value corrected for drug in vasculature): Conc.
[6] = biological target: P-gp (Rattus norvegicus, UniProt Q6PSM0); conditions: cited from earlier work; for Increase in brain-to-plasma AUC ratio with elacridar: studies in rats (so in the source), ref Barraud de Lagerie et al., 2004
P-gp (Rattus norvegicus, UniProt Q6PSM0), sequence (Q6PSM0 1-1272): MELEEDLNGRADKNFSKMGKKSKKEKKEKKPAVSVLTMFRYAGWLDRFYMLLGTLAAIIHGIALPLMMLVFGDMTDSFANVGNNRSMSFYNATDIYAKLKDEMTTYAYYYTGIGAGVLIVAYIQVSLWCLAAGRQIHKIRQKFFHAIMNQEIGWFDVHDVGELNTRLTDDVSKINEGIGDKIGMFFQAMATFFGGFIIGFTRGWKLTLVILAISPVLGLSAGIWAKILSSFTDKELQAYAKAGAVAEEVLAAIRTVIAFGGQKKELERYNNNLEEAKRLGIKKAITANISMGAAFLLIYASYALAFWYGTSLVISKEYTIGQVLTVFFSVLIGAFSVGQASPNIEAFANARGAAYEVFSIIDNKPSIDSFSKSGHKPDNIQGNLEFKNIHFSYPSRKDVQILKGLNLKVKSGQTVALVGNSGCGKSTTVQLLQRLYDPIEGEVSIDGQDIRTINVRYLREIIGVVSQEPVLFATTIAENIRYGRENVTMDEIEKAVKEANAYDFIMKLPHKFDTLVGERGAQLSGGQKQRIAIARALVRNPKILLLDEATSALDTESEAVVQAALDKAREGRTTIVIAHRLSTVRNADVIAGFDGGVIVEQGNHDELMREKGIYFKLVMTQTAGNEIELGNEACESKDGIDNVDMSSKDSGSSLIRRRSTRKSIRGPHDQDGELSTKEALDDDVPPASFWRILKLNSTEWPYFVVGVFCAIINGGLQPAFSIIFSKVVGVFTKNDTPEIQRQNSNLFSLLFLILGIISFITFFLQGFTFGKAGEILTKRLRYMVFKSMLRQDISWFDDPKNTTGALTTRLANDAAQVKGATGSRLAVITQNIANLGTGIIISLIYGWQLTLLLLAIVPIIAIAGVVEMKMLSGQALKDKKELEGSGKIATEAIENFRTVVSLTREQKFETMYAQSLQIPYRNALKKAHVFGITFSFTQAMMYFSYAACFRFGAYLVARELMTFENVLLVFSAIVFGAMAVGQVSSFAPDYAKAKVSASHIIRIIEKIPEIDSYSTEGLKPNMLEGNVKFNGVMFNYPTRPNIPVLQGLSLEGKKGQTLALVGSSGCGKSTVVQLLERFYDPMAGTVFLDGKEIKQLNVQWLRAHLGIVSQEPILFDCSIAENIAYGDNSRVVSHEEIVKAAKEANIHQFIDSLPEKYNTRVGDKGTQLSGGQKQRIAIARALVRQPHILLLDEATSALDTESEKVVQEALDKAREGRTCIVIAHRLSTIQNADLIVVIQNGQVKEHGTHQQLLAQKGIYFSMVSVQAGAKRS

[7] = cited from earlier work; for Increase of plasma AUC with ritonavir (200 mg twice daily, 5.5 days): ref Mukwaya et al., 2005
[8] = system: P-gp; conditions: read-out: Reported EC50; ref Ekins et al., 2002; Rautio et al., 2006; cited from earlier work
[9] = system: P-gp and BCRP; conditions: ref Oostendorp et al., 2009; Chen et al., 2008; cited from earlier work
[10] = system: P-gp; conditions: cited from earlier work
[11] = system: P-gp; conditions: parameter not given; ref Saito et al., 2001; cited from earlier work
[12] = mice, cited from earlier work
[13] = system: Bcrp; conditions: mouse, in vivo; cited from earlier work
[14] = Zosuquidar (50 mg/kg, IV), ref Choo et al., 2000
[15] = 16 mg, eight healthy subjects, ref Sadeque et al., 2000
[16] = Valspodar (12.5 mg/kg, IV), ref Choo et al., 2000
[17] = Verapamil (12.5 mg/kg, IV), ref Choo et al., 2000

## O[C@@H](COc1cccc2ncccc12)CN1CCN([C@@H]2c3ccccc3[C@@H]3[C@H](c4ccccc42)C3(F)F)CC1 [Zosuquidar]
[1]; in vivo
  Precipitant drug concentration (CSF): 8.5 ng/mL

## COc1cccc2c1C(=O)c1c(O)c3c(c(O)c1C2=O)C[C@@](O)(C(=O)CO)C[C@@H]3O[C@H]1C[C@H](N)[C@H](O)[C@H](C)O1 [Doxorubicin]
[2]
  Effect of exposure in Collie and other dog breeds that naturally lack P-gp: neurological symptoms
[3]; ref Warren et al., 2000
  CNS distribution in untreated subjects (ventricular CSF / plasma conc. ratio): < 0.05 (ventricular CSF / plasma conc. ratio)
[4]
  CSF concentrations alone or with intravenous cyclosporine: below the limit of detection

## CC(=O)O[C@H]1C(=O)[C@@]2(C)[C@H]([C@H](OC(=O)c3ccccc3)[C@]3(O)C[C@H](OC(=O)[C@H](O)[C@@H](NC(=O)c4ccccc4)c4ccccc4)C(C)=C1C3(C)C)[C@]1(OC(C)=O)CO[C@@H]1C[C@@H]2O [Paclitaxel]
[5]; elacridar plasma concentrations <900 ng/ml, ref Kemper et al., 2003
  Increase in brain uptake with elacridar: 5 fold

## O[C@H](c1cc(C(F)(F)F)nc2c(C(F)(F)F)cccc12)[C@@H]1CCCCN1 [(-) mefloquine, mefloquine]
[6]
  Increase in brain-to-plasma AUC ratio with elacridar: 1.5 times

## CCCN(CCC)S(=O)(=O)c1ccc(C(=O)O)cc1 [probenecid]
[7]; ref Bode et al., 1980
  Probenecid CSF concentrations at 2500 mg/m^2: 2.4 to 3.4 µg/mL

## CC(C)(C)NC(=O)[C@@H]1C[C@@H]2CCCC[C@@H]2CN1C[C@@H](O)[C@H](Cc1ccccc1)NC(=O)[C@H](CC(N)=O)NC(=O)c1ccc2ccccc2n1 [Saquinavir]
[5]; [14]
  Fold change in brain uptake ratio in inhibitor-treated vs. control mice: ∼ 3.0, Conc. fold
[8]
  EC50: 6.5 µM

## Cc1ccc(NC(=O)c2ccc(CN3CCN(C)CC3)cc2)cc1Nc1nccc(-c2cccnc2)n1 [Imatinib]
[5]; ref Bihorel et al., 2007
  Enhancement of brain uptake by valspodar or zosuquidar: up to 3 fold
[5]; ref Breedveld et al., 2005, Oostendorp et al., 2009
  Increase in brain distribution with elacridar in WT mice: up to 5 fold

## CNC(=O)C(CCN1CCC(O)(c2ccc(Cl)cc2)CC1)(c1ccccc1)c1ccccc1 [N-desmethyl-loperamide]
[7]
  Increase of plasma AUC with ritonavir (200 mg twice daily, 5.5 days): 1.4 fold

## Cc1nc(Nc2ncc(C(=O)Nc3c(C)cccc3Cl)s2)cc(N2CCN(CCO)CC2)n1 [dasatinib]
[9]
  Increase of brain-to-plasma concentration ratio in triple KO mice: 10 fold

## CN(C)C(=O)C(CCN1CCC(O)(c2ccc(Cl)cc2)CC1)(c1ccccc1)c1ccccc1 [Loperamide]
[2]
  Effect of exposure in Collie and other dog breeds that naturally lack P-gp: neurological symptoms
[10]; [15]
  Opioid-induced respiratory depression, given alone: did not produce respiratory depression
  Opioid-induced respiratory depression, with quinidine sulfate (600 mg): respiratory depression occurred
[10]; loperamide 32 mg orally, nine healthy volunteers, ref Kurnik et al., 2008
  Effect of tariquidar (150 mg, iv) on plasma concentrations and CNS effects: did not significantly affect
[7]; 12 healthy volunteers, ref Tayrouz et al., 2001
  Increase of plasma AUC with 600 mg ritonavir: 2.7 fold
[7]
  Increase of plasma AUC with ritonavir (200 mg twice daily, 5.5 days): 2.2 fold

## CC(=O)O[C@@]12CO[C@@H]1C[C@H](O)[C@@]1(C)C(=O)[C@H](O)C3=C(C)[C@@H](OC(=O)[C@H](O)[C@@H](NC(=O)OC(C)(C)C)c4ccccc4)C[C@@](O)([C@@H](OC(=O)c4ccccc4)[C@H]21)C3(C)C [Docetaxel]
[5]; ref Kemper et al., 2004c
  Increase in brain uptake by single oral doses of valspodar and elacridar: up to 2.6 fold

## [^18F]-Paclitaxel
[3]; ref Kurdziel et al., 2003
  CNS distribution in untreated subjects (brain / metabolite-corrected plasma AUC ratio): 0.05 (brain / metabolite-corrected plasma AUC ratio)

## CC[C@]1(O)C[C@H]2CN(CCc3c([nH]c4ccccc34)[C@@](C(=O)OC)(c3cc4c(cc3OC)N(C=O)[C@H]3[C@@](O)(C(=O)OC)[C@H](OC(C)=O)[C@]5(CC)C=CCN6CC[C@]43[C@@H]65)C2)C1 [Vincristine]
[2]
  Effect of exposure in Collie and other dog breeds that naturally lack P-gp: neurological symptoms

## Cc1c(O)cccc1C(=O)N[C@@H](CSc1ccccc1)[C@H](O)CN1C[C@H]2CCCC[C@H]2C[C@H]1C(=O)NC(C)(C)C [Nelfinavir]
[5]; Elacridar (10 mg/kg, IV), ref Salama et al., 2005, Giri et al., 2008
  Fold change in brain uptake ratio in inhibitor-treated vs. control mice: 8.7 fold
[5]; Elacridar (10 mg/kg, IV), ref Salama et al., 2005
  Fold change in brain uptake ratio in inhibitor-treated vs. control mice (value corrected for drug in vasculature): 8.9 fold
[5]; [16]
  Fold change in brain uptake ratio in inhibitor-treated vs. control mice: 10.3 fold
  Fold change in brain uptake ratio in inhibitor-treated vs. control mice (value corrected for drug in vasculature): 13.3 fold
[5]; [17]
  Fold change in brain uptake ratio in inhibitor-treated vs. control mice: 1.0 (1.0), Conc. fold
  Fold change in brain uptake ratio in inhibitor-treated vs. control mice (value corrected for drug in vasculature): 1.0 (1.0), Conc. fold
[5]; [14]
  Fold change in brain uptake ratio in inhibitor-treated vs. control mice: 18.1 fold
  Fold change in brain uptake ratio in inhibitor-treated vs. control mice (value corrected for drug in vasculature): 25.1 fold
[5]; Zosuquidar (50 mg/kg, IV), ref Choo et al., 2000, listed as nelfinavir
  Fold change in brain uptake ratio in inhibitor-treated vs. control mice: up to 18 fold
[8]
  EC50: 1.4 to 44 µM
[3]; ref Kaddoumi et al., 2007, Eyal, et al., 2009
  CNS distribution in untreated subjects (brain / plasma conc. ratio): 0.04
[3]; ref Kaddoumi et al., 2007
  CNS distribution in untreated subjects (lumbar CSF / plasma, conc. ratio): 0.006
[6]; dose-dependent, ref Anderson et al., 2006
  Increase in brain uptake with zosuquidar in rats: ≤ 29 fold

## O[C@@H](c1cc(C(F)(F)F)nc2c(C(F)(F)F)cccc12)[C@H]1CCCCN1 [(+) mefloquine, mefloquine]
[6]
  Increase in brain-to-plasma AUC ratio with elacridar: 2.5 times

## CC(C)(C)c1ccc(C(O)CCCN2CCC(C(O)(c3ccccc3)c3ccccc3)CC2)cc1 (centres unmarked) [terfenadine]
[6]; ref Obradovic et al., 2007
  Increase in brain uptake with cyclosporine in rats: several-fold

## CC[C@]1(O)C[C@@H]2CN(CCc3c([nH]c4ccccc34)[C@@](C(=O)OC)(c3cc4c(cc3OC)N(C)[C@H]3[C@@](O)(C(=O)OC)[C@H](OC(C)=O)[C@]5(CC)C=CCN6CC[C@]43[C@@H]65)C2)C1 [Vinblastine]
[2]
  Effect of exposure in Collie and other dog breeds that naturally lack P-gp: neurological symptoms
[5]; ref Cisternino et al., 2001
  Increase in brain uptake by valspodar and elacridar: 3 fold
[11]
  Fold change in brain uptake ratio in P-gp KO vs. control mice: 3.3 fold
  Fold change in brain uptake ratio in P-gp KO vs. control mice (value corrected for drug in vasculature): 3.4 fold

## C=C[C@H]1C[N@@]2CC[C@H]1C[C@@H]2[C@@H](O)c1ccnc2ccc(OC)cc12 [Quinidine]
[8]
  EC50: 2 to 55 µM
[7]; ref Raderer & Scheithauer, 1993
  Total concentration achievable in humans treated for tumors: 4.5 to 5.6 µM
[12]; 100 mg/kg, IP, ref Fromm et al., 1999
  Inhibitor concentration (plasma): ~2 µM

## CC[C@@]1(O)C(=O)OCc2c1cc1n(c2=O)Cc2cc3c(CN(C)C)c(O)ccc3nc2-1 [topotecan lactone]
[13]
  Decrease of ventricular CSF-to-plasma AUC ratio with gefitinib: 17%

## CCC(C)n1ncn(-c2ccc(N3CCN(c4ccc(OCC5COC(Cn6cncn6)(c6ccc(Cl)cc6Cl)O5)cc4)CC3)cc2)c1=O (centres unmarked) [Itraconazole]
[8]
  EC50: 0.5 µM

## CC[C@H]1OC(=O)[C@H](C)[C@@H](O[C@H]2C[C@@](C)(OC)[C@@H](O)[C@H](C)O2)[C@H](C)[C@@H](O[C@@H]2O[C@H](C)C[C@H](N(C)C)[C@H]2O)[C@](C)(O)C[C@@H](C)C(=O)[C@H](C)[C@@H](O)[C@]1(C)O [Erythromycin]
[8]
  EC50: 38 µM

## CC(C)(C)NC(=O)[C@@H]1CN(Cc2cccnc2)CCN1C[C@@H](O)C[C@@H](Cc1ccccc1)C(=O)N[C@H]1c2ccccc2C[C@H]1O [Indinavir]
[8]
  EC50: > 50 µM

## C/C=C/C[C@@H](C)C(=O)[C@H]1C(=O)N[C@@H](C(C)C)C(=O)N(C)CC(=O)N(C)[C@@H](CC(C)C)C(=O)N[C@@H](C(C)C)C(=O)N(C)[C@@H](CC(C)C)C(=O)N[C@@H](C)C(=O)N[C@H](C)C(=O)N(C)[C@@H](CC(C)C)C(=O)N(C)[C@@H](CC(C)C)C(=O)N(C)[C@@H](C(C)C)C(=O)N1C [Valspodar]
[12]; 50 mg/kg, PO, ref Mayer et al., 1997
  Inhibitor concentration (brain): 250 ng/g

## Cc1cn([C@H]2C[C@H](N=[N+]=[N-])[C@@H](CO)O2)c(=O)[nH]c1=O [Zidovudine]
[1]; ref Tuntland et al., 1994
  Precipitant drug concentration (CSF): 100 to 2200 ng/mL
  Precipitant drug concentration (plasma): 0.5 to 11.2 µg/mL

## O=c1[nH]cnc2c1ncn2[C@H]1CC[C@@H](CO)O1 [Didanosine]
[1]; ref Tuntland et al., 1994
  Precipitant drug concentration (plasma): 0.9 to 11.3 µg/mL
